The nature of experiment [1]: blockers of HIV-1 ZM109 envelope-driven cell-cell fusion – HeLa effector, CEM target cells, luciferase, cherry-pick, dose response (AID 652058).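 Note: luciferase signal from HIV-1 Env mediated cell-cell fusion of effector and target cells.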 The format is functional, cell-based.
Another experiment addresses Cytochrome P450 2C19 (Homo sapiens, UniProt P33261). In words: Cytochrome panel assay with activity outcomes. Panel member name: p450-cyp2c19 Compounds with AC50 equal or less than 10 uM are considered active. In kind it is functional. The conditions noted are these: read-out: AC50.
The nature of experiment [2]: off-target signal loss in HeLa-CEM21 co-culture – HeLa F-luc CTL cells, cherry-picked, counter-screen for HIV-1 Env fusion inhibitor project, dose response (AID 652040).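 Note: potency for signal decrease marking cytotoxic or nonspecific inhibition.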 The format is functional, cell-based. (In general: Counterscreens check selectivity or assay interference.)
For experiment [3], the target named is T1, Replicative DNA helicase DnaB (Mycobacterium tuberculosis, UniProt P9WMR3).
T1 sequence (P9WMR3 whole entry): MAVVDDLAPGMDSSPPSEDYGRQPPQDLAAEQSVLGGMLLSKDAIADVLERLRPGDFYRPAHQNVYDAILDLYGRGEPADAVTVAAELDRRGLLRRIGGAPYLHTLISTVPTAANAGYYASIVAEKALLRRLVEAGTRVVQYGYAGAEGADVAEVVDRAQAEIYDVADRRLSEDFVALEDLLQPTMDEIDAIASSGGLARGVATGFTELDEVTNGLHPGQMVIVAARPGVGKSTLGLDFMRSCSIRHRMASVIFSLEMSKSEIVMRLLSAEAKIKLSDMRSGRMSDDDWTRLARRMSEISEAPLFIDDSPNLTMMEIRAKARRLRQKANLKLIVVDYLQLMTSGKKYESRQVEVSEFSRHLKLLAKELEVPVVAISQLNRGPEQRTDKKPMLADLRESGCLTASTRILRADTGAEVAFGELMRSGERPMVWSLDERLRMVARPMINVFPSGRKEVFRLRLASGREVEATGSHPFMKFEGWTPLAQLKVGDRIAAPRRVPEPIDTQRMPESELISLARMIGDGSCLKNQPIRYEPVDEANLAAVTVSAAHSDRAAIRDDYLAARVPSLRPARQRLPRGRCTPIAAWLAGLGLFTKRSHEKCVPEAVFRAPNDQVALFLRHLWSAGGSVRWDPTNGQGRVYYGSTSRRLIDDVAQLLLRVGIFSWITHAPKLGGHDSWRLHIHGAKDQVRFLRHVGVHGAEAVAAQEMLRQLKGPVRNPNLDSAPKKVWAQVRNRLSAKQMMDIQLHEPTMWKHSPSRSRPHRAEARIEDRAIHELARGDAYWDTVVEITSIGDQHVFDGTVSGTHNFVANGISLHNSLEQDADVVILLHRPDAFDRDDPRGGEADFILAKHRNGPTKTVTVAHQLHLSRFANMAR
In words: DnaB intein splicing inhibitors, dose response, biochemical, cell-free fluorescence (AID 449749). The format is functional.

Experiment [4] in a line: HEK-293T viability loss after treatment – luminescence, T-cell screen hits, cytotoxicity control for TCR NF-kB inhibitor project, dose response (AID 489026).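 Note: cells exposed to compound about 14 hours before the viability readout.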 The format is functional, cell-based.
The next experiment deals with Streptococcus. In words: GAS UMAA2166 growth inhibition – luminescence, BacTiterGlo, counter-screen for streptokinase expression inhibitor project, dose response (AID 1915).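 Note: potency for reduction of bacterial viability or growth.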 The format is functional, organism-based.
Experiment [5] in a line: A549 cell cytotoxicity, dose response, cytotoxicity control, plate reader, cherry-pick, antagonist series (AID 743412). The format is functional, cell-based.
Experiment [6] is described as follows: toxicity toward HepG2 liver cells – cell-based, plate reader, cherry-pick, antagonist series, cytotoxicity control, dose response (AID 743416). In kind it is functional.
Experiment [7] concerns the target Dual specificity tyrosine-phosphorylation-regulated kinase 1A (Rattus norvegicus, UniProt Q63470). The format is biochemical, Homo sapiens.
The target in the next experiment is T2, Cysteine protease ATG4B (Homo sapiens, UniProt Q9Y4P1).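 Note: Fluorescence-based dose-response confirmation assay measuring inhibition of ATG4B activity.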
T2 sequence (Q9Y4P1 whole entry): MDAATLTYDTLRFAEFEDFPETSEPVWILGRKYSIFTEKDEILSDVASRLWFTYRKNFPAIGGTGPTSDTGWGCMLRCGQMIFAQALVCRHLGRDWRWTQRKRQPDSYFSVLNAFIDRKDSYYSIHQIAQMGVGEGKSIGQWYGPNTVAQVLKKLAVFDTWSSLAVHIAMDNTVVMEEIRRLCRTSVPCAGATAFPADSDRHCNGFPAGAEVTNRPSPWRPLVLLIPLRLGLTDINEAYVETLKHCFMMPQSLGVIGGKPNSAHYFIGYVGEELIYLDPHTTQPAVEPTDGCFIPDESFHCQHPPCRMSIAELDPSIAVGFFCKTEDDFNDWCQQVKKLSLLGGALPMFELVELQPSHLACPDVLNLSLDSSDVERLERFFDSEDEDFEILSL
In kind it is functional.

Experiment [8] in a line: blockers of bursicon-stimulated LGR2 cAMP reporter – cell-based, HEK293, CRE-luciferase reporter, cherry pick, set 2, dose response (AID 743343).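 Note: transfected cells were stimulated with diluted bursicon conditioned medium after compound addition.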 The format is functional. For orientation: Reporter assays use an easily measured gene product as a stand-in for the process of interest.
Experiment [9] can be described thus: reduced cellular PGC1a acetyl-lysine signal – cell-based, cherry-picked samples, dose response (AID 720514).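 Note: potency may reflect raised or lowered acetylation signal.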 The format is functional.
Experiment [10] has as its target Photoreceptor-specific nuclear receptor (Homo sapiens, UniProt Q9Y5X4). In kind it is functional.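 Note: potency for compounds that break the NR2E3 corepressor complex and count as activators.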
A further experiment is described as follows: cells. In kind it is functional, cell-based.
A short description of experiment [11]: Counterscreen for AddAB inhibitors: absorbance-based bacterial cell-based high throughput dose response assay for inhibitors of bacterial viability. [Related pubchem assays (depositor defined):AID435030, AID449728, AID449731, AID488942, AID488955, AID488956]. In kind it is functional.

Active and inactive are the calls of the source.

Photoreceptor-specific nuclear receptor, sequence (Q9Y5X4 whole entry): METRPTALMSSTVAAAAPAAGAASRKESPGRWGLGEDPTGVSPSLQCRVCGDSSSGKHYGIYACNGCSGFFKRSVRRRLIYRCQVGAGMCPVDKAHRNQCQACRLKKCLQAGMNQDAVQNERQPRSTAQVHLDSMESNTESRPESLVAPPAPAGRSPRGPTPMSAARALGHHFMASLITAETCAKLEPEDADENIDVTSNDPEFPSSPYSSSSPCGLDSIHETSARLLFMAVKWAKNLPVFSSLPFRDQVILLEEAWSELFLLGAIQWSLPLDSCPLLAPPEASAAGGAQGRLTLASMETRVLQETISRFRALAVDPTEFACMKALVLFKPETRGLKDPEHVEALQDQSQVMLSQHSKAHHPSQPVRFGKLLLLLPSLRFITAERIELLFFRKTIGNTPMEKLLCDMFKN
Cytochrome P450 2C19, sequence (P33261 whole entry, the tested form may be a part): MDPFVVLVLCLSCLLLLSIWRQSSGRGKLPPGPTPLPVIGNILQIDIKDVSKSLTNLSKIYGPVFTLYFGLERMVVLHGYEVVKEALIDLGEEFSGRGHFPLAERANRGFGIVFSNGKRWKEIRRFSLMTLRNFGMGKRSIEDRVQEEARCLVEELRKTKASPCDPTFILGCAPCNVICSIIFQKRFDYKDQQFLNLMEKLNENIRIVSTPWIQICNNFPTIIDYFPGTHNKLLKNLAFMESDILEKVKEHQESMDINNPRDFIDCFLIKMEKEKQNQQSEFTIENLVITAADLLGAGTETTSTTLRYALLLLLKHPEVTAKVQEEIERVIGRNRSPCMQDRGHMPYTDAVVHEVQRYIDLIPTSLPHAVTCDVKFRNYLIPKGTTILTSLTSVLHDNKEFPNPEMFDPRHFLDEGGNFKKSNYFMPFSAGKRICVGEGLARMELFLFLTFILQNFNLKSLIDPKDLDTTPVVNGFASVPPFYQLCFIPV

As to `CCCCCCCCCCn1c2c(c(=N)c3c1CCC3)CCC2`, the AC50 (in general, the concentration giving half of the maximal activity seen) in experiment [1] is 1.7 µM (active); at Cytochrome P450 2C19, 28.2 µM (inconclusive); in experiment [2], 0.424 µM (active); in [3], 2.81 µM (active). In experiment [4], the IC50 – broadly, the concentration at which inhibition is half-maximal – is 38.4 µM (inactive). Besides, the EC50 – broadly, the concentration at which the effect is half-maximal – in the experiment on Streptococcus was 8.86 µM (active).
As to `Cn1nc(-c2ccccn2)nc2c(=O)n(C)c(=O)nc1-2`, the AC50 is 3.15 µM (active) in [5]; 2.42 µM (active) in experiment [6]; 0.284 µM (active) in [7]; 0.573 µM (active) in experiment [3]; 2.57 µM (active) in experiment [8]; 3.15 µM (active) in [9]. Besides, the IC50 was 2.07 µM (active) on Cysteine protease ATG4B, 4.26 µM (active) in [4] and > 39.8 µM (not active) in [10].
With `CCC(=O)NC(c1ccc(OC)cc1)c1cc(Cl)c2cccnc2c1O` (stereo not drawn), the EC50 in “cells” is 19 µM (active). Also, the IC50 in experiment [11] is > 119 µM (inactive).
As for `COc1ccc(NS(=O)(=O)c2ccc3c(c2)[C@H]2C=CC[C@H]2[C@@H](c2ccc(C(=O)O)cc2)N3)cc1`, the IC50 at Cysteine protease ATG4B was 5.28 µM (active).

These data come from ChEMBL document CHEMBL1201862, “PubChem BioAssay data set” (2004).
